# Data published in patent US12281149B2, “Modulators of G-protein coupled receptors” (priority 2021, dated 2025).
# *1 amine or outer side, *2 acyl side, *3 side chain or, on linkers, in order; H or OH if unused. Where a SMILES comes first, the peptide text is derived from it. Side-chain parts run from the residue outwards. [ ]: non-standard residue; d: D form. The star is where a group is joined. Isobutyryl(2-(3-CN-5-F-Ph)) = CC(C)(C(=O)*)c1cc(F)cc(C#N)c1; C20 diacid = O=C(O)CCCCCCCCCCCCCCCCCCC(=O)*; γGlu = O=C(O)[C@H](CCC(=O)[*:2])N[*:1]; X21 = O=C(C(CN[*:1])C(F)(F)F)[*:2]; AEEA = NCCOCCOCC(=O)O; Aib = CC(C)(N)C(=O)O; βAla = NCCC(=O)O
# What was measured:
# Format in all cases: cell-based
# GLP-1 receptor [1] = biological target: T1, GLP-1 receptor (Homo sapiens, UniProt P43220); assay: HitHunter cAMP assay, GLP-1 receptor; conditions: for EC50: CHO cells stably expressing human GLP-1 receptor, cAMP accumulation, 30 min, read-out: EC50 GLP-1R; for Emax: CHO cells, cAMP, normalized to maximum signal from GLP-1 (high) and DMSO (low), read-out: Emax GLP-1R
# T1 sequence (P43220 24-463): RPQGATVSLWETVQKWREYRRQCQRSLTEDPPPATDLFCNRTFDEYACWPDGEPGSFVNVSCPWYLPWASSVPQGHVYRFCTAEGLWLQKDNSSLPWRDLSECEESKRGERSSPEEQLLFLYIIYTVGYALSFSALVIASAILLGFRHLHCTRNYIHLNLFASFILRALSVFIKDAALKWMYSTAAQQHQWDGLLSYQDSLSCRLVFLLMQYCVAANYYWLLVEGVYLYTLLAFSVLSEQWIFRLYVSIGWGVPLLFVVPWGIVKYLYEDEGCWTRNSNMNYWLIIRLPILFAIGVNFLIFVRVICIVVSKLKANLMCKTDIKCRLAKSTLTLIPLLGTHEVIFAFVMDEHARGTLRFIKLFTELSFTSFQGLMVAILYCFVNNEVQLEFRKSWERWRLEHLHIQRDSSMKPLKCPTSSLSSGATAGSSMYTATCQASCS
# GIP receptor [2] = biological target: T2, GIP receptor (Homo sapiens, UniProt P48546); assay: PathHunter β-arrestin assay, GIP receptor; parameters: host or cells: PathHunter CHO-K1 GIPR β-Arrestin Cell Line; conditions: β-arrestin-2 recruitment, PathHunter CHO-K1 GIPR β-Arrestin Cell Line, 90 min at 37° C.; normalized to GIP; read-out: GIPR β Arrestin EC50
# T2 sequence (P48546 22-466): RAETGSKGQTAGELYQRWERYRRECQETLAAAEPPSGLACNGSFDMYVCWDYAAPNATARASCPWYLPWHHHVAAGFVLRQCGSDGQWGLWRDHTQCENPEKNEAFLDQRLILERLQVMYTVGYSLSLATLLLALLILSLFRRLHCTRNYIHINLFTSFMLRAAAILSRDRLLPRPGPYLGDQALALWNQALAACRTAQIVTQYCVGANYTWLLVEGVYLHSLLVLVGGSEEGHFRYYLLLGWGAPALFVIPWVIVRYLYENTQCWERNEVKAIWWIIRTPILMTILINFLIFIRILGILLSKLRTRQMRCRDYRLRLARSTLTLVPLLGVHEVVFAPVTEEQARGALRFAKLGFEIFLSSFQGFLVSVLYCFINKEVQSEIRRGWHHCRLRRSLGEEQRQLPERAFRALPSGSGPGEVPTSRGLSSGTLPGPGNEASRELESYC
# GIP receptor [3] = biological target: T2, GIP receptor; assay: HitHunter cAMP assay, GIP receptor; conditions: for EC50: CHO cells stably expressing GIP receptor, cAMP accumulation, 30 min, read-out: EC50 GIP-1R; for Emax: CHO cells, cAMP, normalized to maximum signal from GIP (high) and DMSO (low), read-out: Emax GIP-1R
# GLP-1 receptor [4] = biological target: T1, GLP-1 receptor; assay: PathHunter β-arrestin assay, GLP-1 receptor; parameters: host or cells: PathHunter CHO-K1 GLP1R β-Arrestin Cell Line; conditions: β-arrestin-2 recruitment, PathHunter CHO-K1 GLP1R β-Arrestin Cell Line, 90 min at 37° C.; normalized to GLP-1; read-out: GLP-1R β Arrestin EC50
Structure (SMILES),EC50 (GLP-1 receptor [1]),Emax (GLP-1 receptor [1]),EC50 (GIP receptor [2]),EC50 (GIP receptor [3]),Emax (GIP receptor [3]),EC50 (GLP-1 receptor [4])
CC[C@H](C)[C@H](NC(=O)[C@H](CC(C)C)NC(=O)[C@H](Cc1c[nH]c2ccccc12)NC(=O)[C@H](CCC(N)=O)NC(=O)[C@@H](NC(=O)[C@H](Cc1ccccc1)NC(=O)[C@H](C)NC(=O)[C@H](CCCCNC(=O)COCCOCCNC(=O)COCCOCCNC(=O)CC[C@H](NC(=O)CCCCCCCCCCCCCCCCCCC(=O)O)C(=O)O)NC(=O)[C@H](CCC(N)=O)NC(=O)[C@H](C)NC(=O)[C@@H](NC(=O)[C@H](CCCCN)NC(=O)[C@H](CC(=O)O)NC(=O)[C@H](CC(C)C)NC(=O)C(C)(C)NC(=O)[C@@H](NC(=O)[C@H](CO)NC(=O)[C@H](Cc1ccc(O)cc1)NC(=O)[C@H](CC(=O)O)NC(=O)[C@H](CO)NC(=O)[C@@H](NC(=O)[C@H](Cc1ccccc1)NC(=O)[C@@H](NC(=O)CNC(=O)[C@H](CCC(=O)O)NC(=O)C(CNC(=O)C(C)(C)c1cc(F)cc(C#N)c1)C(F)(F)F)[C@@H](C)O)[C@@H](C)O)[C@@H](C)CC)[C@@H](C)CC)C(C)C)C(=O)N[C@@H](C)C(=O)NCC(=O)NCC(=O)N1CCC[C@H]1C(=O)N[C@@H](CO)C(=O)N[C@@H](CO)C(=O)NCC(=O)N[C@@H](C)C(=O)N1CCC[C@H]1C(=O)N1CCC[C@H]1C(=O)N1CCC[C@H]1C(=O)N[C@@H](CO)C(N)=O (stereo partly drawn) [Compound 165] ({Isobutyryl(2-(3-CN-5-F-Ph))}-[X21]EGTFTSDYSI[Aib]LDKIAQK([AEEA-AEEA-γGlu-C20 diacid])AFVQWLIAGGPSSGAPPPS-NH2),10 to 100 nM,111%,> 1000 nM,100 to 1000 nM,92%,> 1000 nM
CC[C@H](C)[C@H](NC(=O)[C@H](CC(C)C)NC(=O)[C@H](Cc1c[nH]c2ccccc12)NC(=O)[C@H](CCC(N)=O)NC(=O)[C@@H](NC(=O)[C@H](Cc1ccccc1)NC(=O)[C@H](C)NC(=O)[C@H](CCCCNC(=O)COCCOCCNC(=O)COCCOCCNC(=O)CC[C@H](NC(=O)CCCCCCCCCCCCCCCCCCC(=O)O)C(=O)O)NC(=O)[C@H](CCC(N)=O)NC(=O)[C@H](C)NC(=O)[C@@H](NC(=O)[C@H](CCCCN)NC(=O)[C@H](CC(=O)O)NC(=O)[C@H](CC(C)C)NC(=O)C(C)(C)NC(=O)[C@@H](NC(=O)[C@H](CO)NC(=O)[C@H](Cc1ccc(O)cc1)NC(=O)[C@H](CC(=O)O)NC(=O)[C@H](CO)NC(=O)[C@@H](NC(=O)[C@H](Cc1ccccc1)NC(=O)[C@@H](NC(=O)CNC(=O)[C@H](CCC(=O)O)NC(=O)CCNC(=O)C(C)(C)c1cc(F)cc(C#N)c1)[C@@H](C)O)C(C)C)[C@@H](C)CC)[C@@H](C)CC)C(C)C)C(=O)N[C@@H](C)C(=O)NCC(=O)NCC(=O)N1CCC[C@H]1C(=O)N[C@@H](CO)C(=O)N[C@@H](CO)C(=O)NCC(=O)N[C@@H](C)C(=O)N1CCC[C@H]1C(=O)N1CCC[C@H]1C(=O)N1CCC[C@H]1C(=O)N[C@@H](CO)C(N)=O [Compound 166] ({Isobutyryl(2-(3-CN-5-F-Ph))-βAla}-EGTFVSDYSI[Aib]LDKIAQK([AEEA-AEEA-γGlu-C20 diacid])AFVQWLIAGGPSSGAPPPS-NH2),10 to 100 nM,77%,< 1000 nM,1 to 10 nM,108%,> 1000 nM
CC[C@H](C)[C@H](NC(=O)[C@H](CO)NC(=O)[C@H](CCCCNC(=O)COCCOCCNC(=O)COCCOCCNC(=O)CC[C@H](NC(=O)CCCCCCCCCCCCCCCCCCC(=O)O)C(=O)O)NC(=O)[C@H](CC(=O)O)NC(=O)[C@H](CO)NC(=O)[C@@H](NC(=O)[C@H](Cc1ccccc1)NC(=O)[C@@H](NC(=O)CNC(=O)[C@H](CCC(=O)O)NC(=O)CCNC(=O)C(C)(C)c1cc(F)cc(C#N)c1)[C@@H](C)O)[C@@H](C)O)C(=O)N[C@@H](Cc1ccc(O)cc1)C(=O)N[C@@H](CC(C)C)C(=O)N[C@@H](CC(=O)O)C(=O)N[C@@H](CCCCN)C(=O)N[C@@H](CCC(N)=O)C(=O)N[C@@H](C)C(=O)N[C@@H](C)C(=O)NC(C)(C)C(=O)N[C@@H](CCC(=O)O)C(=O)N[C@@H](Cc1ccccc1)C(=O)N[C@H](C(=O)N[C@@H](CC(N)=O)C(=O)N[C@@H](Cc1c[nH]c2ccccc12)C(=O)N[C@@H](CC(C)C)C(=O)N[C@@H](CC(C)C)C(=O)N[C@@H](C)C(=O)NCC(=O)NCC(=O)N1CCC[C@H]1C(=O)N[C@@H](CO)C(=O)N[C@@H](CO)C(=O)NCC(=O)N[C@@H](C)C(=O)N1CCC[C@H]1C(=O)N1CCC[C@H]1C(=O)N1CCC[C@H]1C(=O)N[C@@H](CO)C(N)=O)C(C)C [Compound 167] ({Isobutyryl(2-(3-CN-5-F-Ph))-βAla}-EGTFTSDK([AEEA-AEEA-γGlu-C20 diacid])SIYLDKQAA[Aib]EFVNWLLAGGPSSGAPPPS-NH2),0.1 to 1 nM,108%,> 1000 nM,10 to 100 nM,91%,> 1000 nM
CC[C@H](C)[C@H](NC(=O)[C@H](CC(C)C)NC(=O)[C@H](Cc1c[nH]c2ccccc12)NC(=O)[C@H](CCC(N)=O)NC(=O)[C@@H](NC(=O)[C@H](Cc1ccccc1)NC(=O)[C@H](C)NC(=O)[C@H](CCCCNC(=O)COCCOCCNC(=O)COCCOCCNC(=O)CC[C@H](NC(=O)CCCCCCCCCCCCCCCCCCC(=O)O)C(=O)O)NC(=O)[C@H](CCC(N)=O)NC(=O)[C@H](C)NC(=O)[C@@H](NC(=O)[C@H](CCCCN)NC(=O)[C@H](CC(=O)O)NC(=O)[C@H](CC(C)C)NC(=O)C(C)(C)NC(=O)[C@@H](NC(=O)[C@H](CO)NC(=O)[C@H](Cc1ccc(O)cc1)NC(=O)[C@H](CC(=O)O)NC(=O)[C@H](CO)NC(=O)[C@H](C)NC(=O)[C@H](Cc1ccccc1)NC(=O)[C@@H](NC(=O)CNC(=O)[C@H](CCC(=O)O)NC(=O)CCNC(=O)C(C)(C)c1cc(F)cc(C#N)c1)[C@@H](C)O)[C@@H](C)CC)[C@@H](C)CC)C(C)C)C(=O)N[C@@H](C)C(=O)NCC(=O)NCC(=O)N1CCC[C@H]1C(=O)N[C@@H](CO)C(=O)N[C@@H](CO)C(=O)NCC(=O)N[C@@H](C)C(=O)N1CCC[C@H]1C(=O)N1CCC[C@H]1C(=O)N1CCC[C@H]1C(=O)N[C@@H](CO)C(N)=O [Compound 168] ({Isobutyryl(2-(3-CN-5-F-Ph))-βAla}-EGTFASDYSI[Aib]LDKIAQK([AEEA-AEEA-γGlu-C20 diacid])AFVQWLIAGGPSSGAPPPS-NH2),10 to 100 nM,87%,< 1000 nM,1 to 10 nM,112%,> 1000 nM
CC[C@H](C)[C@H](NC(=O)[C@H](CC(C)C)NC(=O)[C@H](Cc1c[nH]c2ccccc12)NC(=O)[C@H](CCC(N)=O)NC(=O)[C@@H](NC(=O)[C@H](Cc1ccccc1)NC(=O)[C@H](C)NC(=O)[C@H](CCCCNC(=O)COCCOCCNC(=O)COCCOCCNC(=O)CC[C@H](NC(=O)CCCCCCCCCCCCCCCCCCC(=O)O)C(=O)O)NC(=O)[C@H](CCC(N)=O)NC(=O)[C@H](C)NC(=O)[C@@H](NC(=O)[C@H](CCCCN)NC(=O)[C@H](CC(=O)O)NC(=O)[C@H](CC(C)C)NC(=O)C(C)(C)NC(=O)[C@@H](NC(=O)[C@H](CO)NC(=O)[C@H](Cc1ccc(O)cc1)NC(=O)[C@H](CC(=O)O)NC(=O)[C@H](CO)NC(=O)[C@@H](NC(=O)[C@H](Cc1ccccc1)NC(=O)[C@@H](NC(=O)CNC(=O)[C@H](CCC(=O)O)NC(=O)CCNC(=O)C(C)(C)c1cc(F)cc(C#N)c1)[C@@H](C)O)[C@@H](C)O)[C@@H](C)CC)[C@@H](C)CC)C(C)C)C(=O)N[C@@H](C)C(=O)NCC(=O)NCC(=O)N1CCC[C@H]1C(=O)N[C@@H](CO)C(=O)N[C@@H](CO)C(=O)NCC(=O)N[C@@H](C)C(=O)N1CCC[C@H]1C(=O)N1CCC[C@H]1C(=O)N1CCC[C@H]1C(=O)N[C@@H](CO)C(=O)O [Compound 169] ({Isobutyryl(2-(3-CN-5-F-Ph))-βAla}-EGTFTSDYSI[Aib]LDKIAQK([AEEA-AEEA-γGlu-C20 diacid])AFVQWLIAGGPSSGAPPPS-OH),0.1 to 1 nM,108%,< 1000 nM,1 to 10 nM,110%,> 1000 nM
